From article PMC11868579 (Nature Communications, 2024)
Where “and” joins values, the source holds several entries; their conditions need not be identical. Equal entries are not always repeated.

Assays:
[1] = tested on: cap-dependent translation; assay: HeLa in vitro translation assay, cap-dependent reporter; type: biochemical, human; conditions: HeLa lysate IVT, n=3
Procedure: HeLa In vitro translation (IVT) assay kits were purchased from Thermo Fisher(cat#88882). Bicistronic reporter mRNA was prepared from using a CMV/T7-renilla luciferase-IRES(FDMV)-firefly luciferase reporter vector as template DNA (supplied by Oxford Genetics Ltd.) using Message Machine T7 Ultra transcription Kit (Thermo Fisher, cat# AM1345) to generate in vitro transcribed mRNA. DNA template was removed with Turbo DNase from the transcription kit and the mRNA purified using RNeasy columns (Qiagen, cat#74204). RNA concentration was adjusted to 1 µg/µl using a Nanodrop. In vitro translation assays were then set up using a HeLa IVT kit according to the manufacturer’s protocol. The reaction was analysed using Dual Glo luciferase reporter assays (Promega, cat#E2920). Compounds were diluted from 100x DMSO stocks 1:10 in PBS and 2.5 µl transferred to 96 well PCR plates (Starlab, cat#I1402-9700). 22.5 µl IVT reaction mix (1.5 mL HeLa lysate, 60 µl RNAsin (Promega, cat#N2115), 300 µl accessory proteins, 600 µl reaction buffer, 200 µl nuclease free water and 30 µl […] mRNA) was added and incubated for 30 min at 30 °C (PCR alphacycler 4, PCRmax, Stone, Staffordshire, UK). The samples were placed on ice for 10 min, then 10 µl was removed and transferred to a white 96 well assay plate (Corning, cat#3917). […]

[2] = molecular target: T1, eIF4E major variant (D127) (Homo sapiens, UniProt P06730); type: binding
T1 construct: made in house; host or cells: E. coli (as described for clone 2983)
T1 sequence (P06730 with tags, fused parts or gaps): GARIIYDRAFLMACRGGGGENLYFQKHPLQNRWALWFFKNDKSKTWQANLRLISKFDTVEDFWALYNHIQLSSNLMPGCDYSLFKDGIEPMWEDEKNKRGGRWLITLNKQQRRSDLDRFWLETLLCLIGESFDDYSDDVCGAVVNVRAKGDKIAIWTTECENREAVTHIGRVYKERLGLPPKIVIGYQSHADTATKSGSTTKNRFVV
Procedure: ITC experiments were performed on either a MicroCal VP-ITC or a MicroCal Auto-ITC200 at 25 °C in a buffer comprising 50 mM HEPES, 100 mM NaCl, 1 mM TCEP and 5% DMSO at pH 7.5. Typical titrations on the MicroCal VP-ITC were performed using 17 × 16.4 µL injections with a 250 s spacing between each injection and with a stirring speed of 307 rpm. Typical titrations on the MicroCal Auto-ITC200 were performed using 12 × 3 µL injections with a 150 s spacing between each injection and with a stirring speed of 750 rpm. ITC data analyses were performed with Origin 7.0 software using the “One Set of Sites” model.

[3] = tested on: cap-dependent and cap-independent (IRES) protein synthesis; assay: Bicistronic protein synthesis reporter in H1299 cells; type: cell-based, human; conditions: 24 hr; for protein synthesis reporter signal (cap-dependent luciferase / IRES luciferase), replicate values: H1299, normalisation not stated
Procedure: H1299 cells were transfected with a biscistronic vector using Lipofectamine 3000 transfection reagent (Fisher Scientific, cat#L3000008) for 24 hr and then treated with compounds for further 24 h. Luminescence was measured after 24 h of compound treatment using the Dual Glo luciferase reporter assays as above.

[4] = molecular target: T2, eIF4E:eIF4G interaction (Homo sapiens, UniProt P06730); assay: Electro-chemiluminescent binding assay, eIF4E:eIF4G, HeLa cell lysates; type: biochemical; parameters: endogenous in cells; host or cells: HeLa cells (lysates); conditions: for binding of eIF4G or 4E-BP1 with eIF4E, luminescence normalised to DMSO control, Average: HeLa, n=3, Fig. 4e
T2 sequence (P06730 2-217 limits assumed): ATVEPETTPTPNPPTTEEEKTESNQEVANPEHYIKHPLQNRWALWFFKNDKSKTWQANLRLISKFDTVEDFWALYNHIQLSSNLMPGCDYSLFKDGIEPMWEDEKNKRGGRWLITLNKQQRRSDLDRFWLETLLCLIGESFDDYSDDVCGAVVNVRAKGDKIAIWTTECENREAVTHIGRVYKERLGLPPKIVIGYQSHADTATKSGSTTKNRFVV
Procedure: (§1) This assay uses plates with carbon electrodes and electro-chemiluminescent labels (SULFO-TAGs) that are conjugated to detection antibodies. When an electric current is applied to the plate electrodes the SULFO-TAG labels will emit light that is measured to quantify analytes in the sample. […] The plates were washed with 3 ×150 µl/well MSD wash buffer (cat#R61AA-1; 0.2% Tween-20 in PBS), then blocked with 150 µl/well block buffer (MSD, cat# R93AA) for 1 h. […] The incubated plates were washed 4x in 150 µl in MSD wash buffer and were re-blocked by the addition of 25 μl of blocking buffer containing a 1:500 dilution of the secondary antibody and incubated for 1 hr at RT with rotational shaking. […] Plates were then washed again 4x in 150 µl in MSD wash buffer and 25 μl of a 1:50 dilution of Goat anti-rabbit Sulfo-Tag (MSD, Cat# R32AB-1) in MSD blocking buffer was added and the plates incubated for 1 h at RT with rotational shaking. After a final wash step, 150 μl Read Buffer T4X (MSD, Cat# R92-TC2) was added and the plate read using the MSD QuickPlex SQ 120 plate reader.

[5] = molecular target: eIF4E–4E-BP1 interaction (Homo sapiens, UniProt P06730); assay: Electro-chemiluminescent binding assay, eIF4E:4E-BP1, HeLa cell lysates; type: biochemical; parameters: endogenous in cells; host or cells: HeLa cell lysates
Chain of eIF4E–4E-BP1 interaction (P06730 2-217 limits assumed): as above
Procedure: as §1

[6] = tested on: H1299 eIF4E-dTAG clones (C2-2, C3-1, N2-1, N3-2) and C3-1 rescue models; assay: IncuCyte real-time cell growth of eIF4E-dTAG clones and rescue models; type: cell-based, human; conditions: for proliferation on co-treatment: 25 μM with dTAG^V-1
Procedure: Real time monitoring of cell growth was performed with the IncuCyte ZOOM live cell imaging system (Essen BioSciences, USA). Cells were seeded in 96 well plates (Corning, cat#353072) and treated on the next day. The resulting phase-contrast images were analysed using IncuCyte ZOOM 2018A software and results were expressed as percentage confluency of cells.

[7] = molecular target: T2, eIF4E:eIF4G interaction; assay: Electro-chemiluminescent binding assay, eIF4E:eIF4G, H1299 cell lysates; type: biochemical; parameters: endogenous in cells; host or cells: HeLa, SW620 or H1299 cells (lysates; intact H1299 cells in A13); conditions: for endogenous eIF4E:eIF4G interaction, electro-chemiluminescent signal, Average: n=3, 0 μM control in r69
Procedure: as §1

[8] = HeLa lysates, 100 µM, 30 min, single experiments Expt 1, Expt 2

SMILES: CC[C@H](O[C@H](C)CO)c1ccc(-c2ccccc2F)cc1NCCO [Compound 4]
- fLuc (CAP) luminescence normalized to DMSO control, Average ([1]; 1 μM): 79.4%
- fLuc (CAP) luminescence normalized to DMSO control, Average ([1]; 10 μM): 29.0%
- fLuc (CAP) luminescence normalized to DMSO control, Average ([1]; 100 μM): 23.9%
- enthalpy DH ([2]; ITC, eIF4E D127): -10.2 kcal/mol
- entropic penalty -TDS ([2]; ITC, eIF4E D127): 0.6 ± 0.4 kcal/mol
- LE (ligand efficiency) ([2]; major variant D127 (values in parentheses)): 0.38 (kcal/mol)/heavy atom
- Kd ([2]; read-out: eIF4E Kd, ITC, major variant D127 (values in parentheses)): 0.09 µM
- protein synthesis reporter signal (cap-dependent luciferase / IRES luciferase), replicate values ([3]; 10 μM): 0.798 and 0.925 and 1.853 and 1.040 and 0.865 and 0.241
- protein synthesis reporter signal (cap-dependent luciferase / IRES luciferase), replicate values ([3]; 25 μM): 1.174 and 0.369 and 0.133 and 0.780 and 0.760 and 1.031
- inhibitory activity in dual reporter assay ([3]; H1299 cells): lacked inhibitory activity
- EC50 ([4]; HeLa cell lysates, n = 4, read-out: Inhibition of PPI in HeLa cells: eIF4E-eIF4G interaction): 1.4 µM
- eIF4G:eIF4E HeLa, luminescence ratio normalised to DMSO control [4, 8]: 6.4% and 10%
- binding of eIF4G or 4E-BP1 with eIF4E, luminescence normalised to DMSO control, Average ([4]; Conc 0.03 μM): 97.2%
- binding of eIF4G or 4E-BP1 with eIF4E, luminescence normalised to DMSO control, Average ([4]; Conc 0.1 μM): 114.5%
- binding of eIF4G or 4E-BP1 with eIF4E, luminescence normalised to DMSO control, Average ([4]; Conc 0.3 μM): 82.4%
- binding of eIF4G or 4E-BP1 with eIF4E, luminescence normalised to DMSO control, Average ([4]; Conc 1 μM): 79.9%
- binding of eIF4G or 4E-BP1 with eIF4E, luminescence normalised to DMSO control, Average ([4]; Conc 3 μM): 54.2%
- binding of eIF4G or 4E-BP1 with eIF4E, luminescence normalised to DMSO control, Average ([4]; Conc 10 μM): 38.7%
- binding of eIF4G or 4E-BP1 with eIF4E, luminescence normalised to DMSO control, Average ([4]; Conc 30 μM): 33.9%
- binding of eIF4G or 4E-BP1 with eIF4E, luminescence normalised to DMSO control, Average ([4]; Conc 100 μM): 26.4%
- binding of eIF4G or 4E-BP1 with eIF4E, luminescence normalised to DMSO control, Average ([4]; Conc 300 μM): 22.8%
- binding of eIF4G or 4E-BP1 with eIF4E, luminescence normalised to DMSO control, Average ([4]; Conc 1000 μM): 28.1%
- 4E-BP1:eIF4E HeLa, luminescence ratio normalised to DMSO control [5, 8]: 88% and 92%
- EC50 ([5]; read-out: Inhibition of PPI in HeLa cells: eIF4E–4E-BP1 interaction, HeLa cell lysates, values in parentheses): > 100 µM
- proliferation on co-treatment ([6]; C3-1 or L85R rescue line): no additional loss of proliferation or MCL1 expression
- proliferation on co-treatment ([6]; W73F mutant model): significant combinatorial effect on proliferation
- effect on proliferation ([6]; 25 μM, absence of dTAG^V-1, C3-1, W73F and L85R models): no effect on the MCL1 biomarker or proliferation
- effects on cell growth, control combination ([6]; compound 4 with neg-dTAG^V-1): no significant effects
- sensitisation on co-treatment ([6]; with dTAG^V-1, W73F mutant model): ≈ 50%
- endogenous eIF4E:eIF4G interaction, electro-chemiluminescent signal, Average ([7]; 0.1 μM): 820654.4
- endogenous eIF4E:eIF4G interaction, electro-chemiluminescent signal, Average ([7]; 1 μM): 641951.8
- endogenous eIF4E:eIF4G interaction, electro-chemiluminescent signal, Average ([7]; 10 μM): 429514.6
- endogenous eIF4E:eIF4G interaction, electro-chemiluminescent signal, Average ([7]; 100 μM): 347571.1
- EC50 ([7]; read-out: EC50, eIF4G:eIF4E binding): ~1.5 µM
